Measured values published in US20190142800A1, “SYNERGISTIC ANTIFUNGAL COMPOSITIONS AND METHODS THEREOF” (VYOME THERAPEUTICS LIMITED, priority 2016, published 2019).
Blank lines part the entries; values can stand above or below the compound they belong to.

How the values were obtained:
[1] = tested on: terbinafine resistant Trichophyton interdigitale (GTB-2S); experiment: Checkerboard assay on terbinafine resistant Trichophyton interdigitale (GTB-2S); assay type: cell-based; settings: for MIC: Trichophyton interdigitale
Experimental: (§1) The synergy is measured by determining the fractional inhibitory concentration (FIC) value of the combination. This experimental set up, called checkerboard method, allows measurement of a desired effect (inhibition of fungal growth in this case) at different combinations of various concentrations of the two agents (antifungal agent and fatty acid/ester). […] No agent is added to the penultimate column on the right and the bottom row. The final column on the right is used for growth control (only inoculum in broth) and sterility control (broth alone, no inoculum). […] FIC values for both agents in a particular well were calculated in this way followed by determination of the FIC index (sum of the FICs of each drug in the concerned well). […] Agents Chemother.
(§2) Using the checkerboard layout experimental setup described above (FIG. 1A), various medium-chain fatty acids were tested for their ability to potentiate the activity of a known antifungal agent. Concentrations above and below the MIC of each test agent were tested using serial dilution. The same procedure was expanded to test combinations of various medium-chain fatty acids C-1 to C-14 (such caprylic acid, undecylenic acid and lauric acid) and esters thereof, with antifungal agents from various classes including azoles, allylamines, benzylamines, zinc pyrithione and piroctone olamine against both susceptible and resistant Trichophyton spp. (filamentous fungus) and Candida spp. (yeast).
(§3) Potentiation of the activity of antimycotic agents using ester derivatives of medium chain fatty acids was tested in a standard, well accepted in vitro assay system to check for synergy. This experimental set up, called checkerboard method, allows measurement of a desired effect (inhibition of fungal growth in this case) at different combinations of various concentrations of two agents. A chosen medium chain fatty acid (C-1 to C-14) or its ester derivative was tested for its ability to potentiate the activity of a known antifungal agent (various classes) using the checkerboard layout. Various concentrations above and below the MIC of each test agent were tested using serial dilution in Sabouraud dextrose broth. […] FIC values for both test agents in a particular well are calculated in this way followed by determination of the FIC index (sum of the FICs of each drug in the concerned well).

[2] = tested on: azole resistant C. albicans MTCC 227; experiment: Checkerboard assay on azole resistant C. albicans MTCC 227; assay type: cell-based, Candida albicans; settings: for MIC: Candida albicans, MTCC227, agent alone
Experimental: as §1, §2, §3

[3] = tested on: Trichophyton rubrum (ATCC-28188); experiment: Checkerboard assay of fatty acid/ester with antifungals on Trichophyton rubrum (ATCC 28188); assay type: cell-based; parameters: key to FIC index: FIC index = sum of FICs; FIC = agent conc in well / agent MIC; settings: for MIC: Trichophyton rubrum, ATCC28188, agent alone
Experimental: The synergy is measured by determining the fractional inhibitory concentration (FIC) value of the combination. This experimental set up, called checkerboard method, allows measurement of a desired effect (inhibition of fungal growth in this case) at different combinations of various concentrations of the two agents (antifungal agent and fatty acid/ester). […] No agent is added to the penultimate column on the right and the bottom row. The final column on the right is used for growth control (only inoculum in broth) and sterility control (broth alone, no inoculum). […] FIC value for each agent in a particular well of the checkerboard layout was calculated by dividing the agent concentration in that well by the established MIC value of the agent against the test organism (Hsieh et al., Synergy assessed by checkerboard: A critical Analysis, Diagn. Microbiol. Infect Dis. (1993) 16:343-349). FIC values for both agents in a particular well were calculated in this way followed by determination of the FIC index (sum of the FICs of each drug in the concerned well). […] Agents Chemother. (2010) 54(2): 602-609].
as §2
Potentiation of the activity of antimycotic agents using ester derivatives of medium chain fatty acids was tested in a standard, well accepted in vitro assay system to check for synergy. This experimental set up, called checkerboard method, allows measurement of a desired effect (inhibition of fungal growth in this case) at different combinations of various concentrations of two agents. A chosen medium chain fatty acid (C-1 to C-14) or its ester derivative was tested for its ability to potentiate the activity of a known antifungal agent (various classes) using the checkerboard layout. Various concentrations above and below the MIC of each test agent were tested using serial dilution in Sabouraud dextrose broth. […] FIC value for a drug in a particular well of the checkerboard layout is calculated by dividing the drug concentration in that well by the established MIC value of the drug against the test organism (Hsieh et al., Synergy assessed by checkerboard: A critical Analysis, Diagn. Microbiol. Infect Dis. (1993) 16:343-349). FIC values for both test agents in a particular well are calculated in this way followed by determination of the FIC index (sum of the FICs of each drug in the concerned well).

[4] = agent's MIC in combination terbinafine or butenafine + caprylic acid
[5] = agent's MIC in combination terbinafine or butenafine + glyceryl monocaprylate
[6] = combination terbinafine or butenafine + caprylic acid
[7] = combination terbinafine or butenafine + glyceryl monocaprylate
[8] = in combination with caprylic acid
[9] = in combination with glyceryl monocaprylate
[10] = in combination with propylene glycol monocaprylate
[11] = Table 12, undecylenic acid (C11) series
[12] = agent's MIC in combination antifungal + caprylic acid (partner: other agent of same combination no.)
[13] = agent's MIC in combination antifungal + glyceryl monocaprylate (partner: other agent of same combination no.)
[14] = agent's MIC in combination antifungal + lauric acid (partner: other agent of same combination no.)
[15] = agent's MIC in combination antifungal + propylene glycol monocaprylate (partner: other agent of same combination no.)
[16] = agent's MIC in combination antifungal + propylene glycol monolaurate (partner: other agent of same combination no.)
[17] = agent's MIC in combination antifungal + undecylenic acid (partner: other agent of same combination no.)
[18] = antifungal in combination with caprylic acid
[19] = antifungal in combination with glyceryl monocaprylate
[20] = antifungal in combination with lauric acid
[21] = antifungal in combination with propylene glycol monocaprylate
[22] = antifungal in combination with propylene glycol monolaurate
[23] = antifungal in combination with undecylenic acid
[24] = combination antifungal + caprylic acid
[25] = combination antifungal + glyceryl monocaprylate
[26] = combination antifungal + lauric acid
[27] = combination antifungal + propylene glycol monocaprylate
[28] = combination antifungal + propylene glycol monolaurate
[29] = combination antifungal + undecylenic acid
[30] = Table 4, undecylenic acid (C11) series

MIC ([1]; agent alone, Table 7): 30 µg/mL | Agent MIC ([1]; agent alone, Table 7): 15 µg/mL | Combination MIC [1, 4]: 0.117 µg/mL | Combination MIC [1, 5]: 0.468 µg/mL
Structure (SMILES): CN(C/C=C/C#CC(C)(C)C)Cc1cccc2ccccc12 [Terbinafine]
FIC [1, 6]: 0.0078 | FIC [1, 7]: 0.0312 | FIC index [1, 8]: 0.5007 | Interaction [1, 8]: Synergistic (Combinations that gave FIC indices less than 1 were designated “synergistic”) | FIC index [1, 9]: 0.531 | Interaction [1, 9]: Synergistic (Combinations that gave FIC indices less than 1 were designated “synergistic”) | Interaction [1, 10]: Synergistic (Combinations that gave FIC indices less than 1 were designated “synergistic”)

MIC ([1]; agent alone, Table 7): 7.5 µg/mL | Combination MIC [1, 4]: 0.468 µg/mL | Combination MIC [1, 5]: 0.234 µg/mL | Combination MIC ([1]; agent's MIC in combination terbinafine or butenafine + propylene glycol monocaprylate): 0.117 µg/mL
Structure (SMILES): CN(Cc1ccc(C(C)(C)C)cc1)Cc1cccc2ccccc12 [Butenafine]
FIC [1, 6]: 0.0625 | FIC [1, 7]: 0.0312 | FIC ([1]; combination terbinafine or butenafine + propylene glycol monocaprylate): 0.016 | FIC index [1, 8]: 0.562 | Interaction [1, 8]: Synergistic (Combinations that gave FIC indices less than 1 were designated “synergistic”) | FIC index [1, 9]: 0.531 | Interaction [1, 9]: Synergistic (Combinations that gave FIC indices less than 1 were designated “synergistic”) | FIC index [1, 10]: 0.516 | Interaction [1, 10]: Synergistic (Combinations that gave FIC indices less than 1 were designated “synergistic”)

MIC ([2]; Table 9, caprylic acid (C8) series): 32 µg/mL | MIC ([2]; Table 10, propylene glycol monocaprylate series): 64 µg/mL | MIC ([2]; Table 11, glyceryl monocaprylate series): 32 µg/mL | MIC [2, 11]: 32 µg/mL | MIC ([2]; Table 13, lauric acid (C12) series): 32 µg/mL | MIC ([2]; Table 14, propylene glycol monolaurate series): 32 µg/mL | Combination MIC [2, 12]: 4 µg/mL | Combination MIC [2, 13]: 4 µg/mL | Combination MIC [2, 14]: 0.125 µg/mL | Combination MIC [2, 15]: 0.125 µg/mL | Combination MIC [2, 16]: 2 µg/mL | Combination MIC [2, 17]: 0.125 µg/mL | MIC ([3]; Table 1, caprylic acid series): 0.125 µg/mL | MIC ([3]; Table 2, propylene glycol monocaprylate series): 0.125 µg/mL | MIC ([3]; Table 3, glyceryl monocaprylate series): 0.125 µg/mL | MIC [3, 30]: 0.125 µg/mL | MIC ([3]; Table 5, lauric acid (C12) series): 0.125 µg/mL | MIC ([3]; Table 6, propylene glycol monolaurate series): 0.125 µg/mL | Combination MIC [3, 12]: 0.0312 µg/mL | Combination MIC [3, 13]: 0.007 µg/mL | Combination MIC [3, 14]: 0.06 µg/mL | Combination MIC [3, 15]: 0.015 µg/mL | Combination MIC [3, 16]: 0.06 µg/mL | Combination MIC [3, 17]: 0.0312 µg/mL
Structure (SMILES): CCC(C)n1ncn(-c2ccc(N3CCN(c4ccc(OCC5COC(Cn6cncn6)(c6ccc(Cl)cc6Cl)O5)cc4)CC3)cc2)c1=O (stereo not drawn) [Itraconazole]
FIC index [2, 18]: 0.25 | Interaction [2, 18]: Synergistic (Combinations that gave FIC indices less than 1 were designated “synergistic”) | FIC index [2, 19]: 0.375 | Interaction [2, 19]: Synergistic (Combinations that gave FIC indices less than 1 were designated “synergistic”) | FIC index [2, 20]: 0.253 | Interaction [2, 20]: Synergistic (Combinations that gave FIC indices less than 1 were designated “synergistic”) | FIC index [2, 21]: 0.064 | Interaction [2, 21]: Synergistic (Combinations that gave FIC indices less than 1 were designated “synergistic”) | FIC index [2, 22]: 0.07 | Interaction [2, 22]: Synergistic (Combinations that gave FIC indices less than 1 were designated “synergistic”) | FIC index [2, 23]: 0.066 | Interaction [2, 23]: Synergistic (Combinations that gave FIC indices less than 1 were designated “synergistic”) | FIC [2, 24]: 0.125 | FIC [2, 25]: 0.125 | FIC [2, 26]: 0.003 | FIC [2, 27]: 0.002 | FIC [2, 28]: 0.0625 | FIC [2, 29]: 0.003 | FIC index [3, 18]: 0.5 | Interaction [3, 18]: Synergistic (Combinations that gave FIC indices less than 1 were designated “synergistic”) | FIC index [3, 19]: 0.562 | Interaction [3, 19]: Synergistic (Combinations that gave FIC indices less than 1 were designated “synergistic”) | FIC index [3, 20]: 0.75 | Interaction [3, 20]: Synergistic (Combinations that gave FIC indices less than 1 were designated “synergistic”) | FIC index [3, 21]: 0.625 | Interaction [3, 21]: Synergistic (Combinations that gave FIC indices less than 1 were designated “synergistic”) | FIC index [3, 22]: 0.6 | Interaction [3, 22]: Synergistic (Combinations that gave FIC indices less than 1 were designated “synergistic”) | FIC index [3, 23]: 0.75 | Interaction [3, 23]: Synergistic (Combinations that gave FIC indices less than 1 were designated “synergistic”) | FIC [3, 24]: 0.25 | FIC [3, 25]: 0.0625 | FIC [3, 26]: 0.5 | FIC [3, 27]: 0.125 | FIC [3, 28]: 0.48 | FIC [3, 29]: 0.25

MIC [2, 11]: 500 µg/mL | MIC [3, 30]: 31.3 µg/mL | Agent MIC ([3]; agent alone, Table 4, undecylenic acid (C11) series): 62.5 µg/mL
Structure (SMILES): C=CCCCCCCCCC(=O)O [Undecylenic acid]
